1 substance from US20150064107A1, “IMAGING AGENT” (King's College London, priority 2013, published 2015) can be followed below.

A short description of assay [1]: In vivo PET/MRI imaging of the lymph node system after footpad injection. Also noted: species or system mouse (C57BL/6). The conditions noted are these: mouse, 6 hours post injection. The protocol:
In vivo PET/MRI imaging of the lymph node (LN) system was carried out using a preclinical nanoScan® PET•MRI scanner with 1 T magnetic field (Mediso Ltd, H-1047, Budapest, Hungary), utilising ^18F-labelled CoxFe3-xO4@NaYF4(Yb, Er)-BP-PEG (10 K) or ^18F-labelled Fe3O4@NaYF4(Yb, Tm)-BP-PEG (2 K) NPIAs as probes. After injection of 20 μL of [^18F]-fluoride-labelled CoxFe3-xO4@NaYF4(Yb, Er)-BP-PEG solution containing 6.3 MBq radioactivity and 20 μg Fe into the rear right foot pad of a mouse (C57BL/6, female, 6-7 weeks old, 20 g), coregistered PET and MRI images were recorded 6 hours post injection. The most prominent signal was from the popliteal LN, which is the nearest draining LN from the injection point, and the next most prominent signal was from the medial iliac LN (FIG. 5a, 5c & 5d).
To further explore the potential value of these NPIAs, a more detailed lymph node study by PET/MRI imaging was undertaken, investigating the popliteal LN in response to an acute inflammatory stimulus in the foot. A solution of ^18F-labelled Fe3O4@NaYF4(Yb, Tm)-BP-PEG (20 μL, 4.5 MBq, 20 μg Fe) was injected into each of the two rear footpads of a female C57BL/6 mouse in which only the right leg was inflamed. […] A control experiment was carried out with [^18F]-fluoride but without NPs Fe3O4@NaYF4(Yb, Tm)-BP-PEG, under the same conditions. […]

Assay [2] in a line: Ex vivo fluorescent imaging of excised popliteal lymph nodes under 980 nm laser. Format: in vivo, mouse (C57BL/6). The settings on record: multi-photon laser scanning microscope. The protocol:
To further explore the potential value of these NPIAs, a more detailed lymph node study by PET/MRI imaging was undertaken, investigating the popliteal LN in response to an acute inflammatory stimulus in the foot. A solution of ^18F-labelled Fe3O4@NaYF4(Yb, Tm)-BP-PEG (20 μL, 4.5 MBq, 20 μg Fe) was injected into each of the two rear footpads of a female C57BL/6 mouse in which only the right leg was inflamed. […] A control experiment was carried out with [^18F]-fluoride but without NPs Fe3O4@NaYF4(Yb, Tm)-BP-PEG, under the same conditions. […] By MRI scanning prior to injection of the labellend NPs, no contrast difference was seen on MR images between the normal LN and the inflamed one. The popliteal lymph nodes on the inflamed side were dissected and viewed, together with the adjacent fatty tissue, with a Femtonics (Budapest, Hungary) Fem2D in vivo multi-photon laser scanning microscope under excitation of a 980 nm laser. […] Fluorescent NPIAs were also found inside cells of adjacent fat tissue of the inflamed popliteal LN.

“Also recorded” adds a separate entry of the source.

[^18F]-fluoride: the “lymph node signal on PET (and MRI) images” value in assay [1] is listed as “no contrast in lymph nodes; also recorded: did not show any signal at the lymph nodes”. For the same substance, in assay [2], the “fluorescence of excised inflamed popliteal lymph node” value was “faint granular fluorescence”.
